A word on the DC50: it is the concentration at which degradation of the target reaches its halfway point. A low value points to a more potent degrader.

For assay [1], the target named is T1, PTPN2 (Homo sapiens, UniProt P17706).
T1 construct: expressed in transfected cells; host or cells: 293T.109 (HiBiT-PTPN2), derived from 293T WT (ATCC)
T1 sequence (P17706 1-415): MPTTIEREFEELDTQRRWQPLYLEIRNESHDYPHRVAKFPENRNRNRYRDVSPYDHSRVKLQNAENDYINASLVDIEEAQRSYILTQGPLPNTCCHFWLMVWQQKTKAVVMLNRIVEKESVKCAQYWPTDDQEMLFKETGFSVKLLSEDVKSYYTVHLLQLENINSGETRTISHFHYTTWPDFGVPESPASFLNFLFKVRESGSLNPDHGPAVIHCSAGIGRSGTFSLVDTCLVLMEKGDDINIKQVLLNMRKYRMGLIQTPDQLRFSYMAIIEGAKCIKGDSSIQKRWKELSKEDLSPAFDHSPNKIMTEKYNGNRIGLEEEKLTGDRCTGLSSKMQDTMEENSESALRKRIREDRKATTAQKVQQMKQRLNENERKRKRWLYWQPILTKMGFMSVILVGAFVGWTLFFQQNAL
In words: HiBiT PTPN2 degradation in 293T.109 (HiBiT-PTPN2) cells, 24 hours. The class given is cell-based. As to conditions: 293T.109 cells. A digest of the protocol: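 293T cells stably expressing N-terminal HiBiT-tagged PTPN2 were treated for 24 h at 37 °C with compound in an 11-point half-log series from 10 μM top concentration, in duplicate. Remaining HiBiT-PTPN2 was measured by lytic luminescence, with untreated cells as the negative control and wells without lytic reagent as the positive control.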
In general terms: HiBiT is a short tag that completes a luciferase, so light tracks the accessible tagged protein.

For assay [2], the target named is T2, PTPN2 (Mus musculus, UniProt Q06180).
T2 construct: HiBiT; host or cells: B16F10.4
T2 sequence (Q06180 1-406): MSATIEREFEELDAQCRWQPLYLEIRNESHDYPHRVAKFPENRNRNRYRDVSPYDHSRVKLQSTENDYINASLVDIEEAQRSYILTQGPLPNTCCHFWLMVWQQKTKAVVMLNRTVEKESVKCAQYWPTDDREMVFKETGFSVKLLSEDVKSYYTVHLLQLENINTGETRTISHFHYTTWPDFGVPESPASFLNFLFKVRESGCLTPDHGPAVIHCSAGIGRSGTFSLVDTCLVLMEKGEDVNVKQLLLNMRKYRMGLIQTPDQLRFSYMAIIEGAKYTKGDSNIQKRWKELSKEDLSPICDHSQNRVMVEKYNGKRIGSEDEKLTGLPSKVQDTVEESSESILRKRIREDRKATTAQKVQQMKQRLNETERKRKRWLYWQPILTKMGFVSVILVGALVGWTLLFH
The experiment in a line: HiBiT PTPN2 degradation in B16F10.4 cells, 24 hours. The class given is cell-based. A digest of the protocol:
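PTPN2 degradation was measured via luminescence from the Nano-Glo® HiBiT Lytic Assay kit. Compounds were dispensed into 384-well plates at an 11-point half-log titration in duplicate, starting at 10 μM. Cells were added at 5000 per well and held at 37° C. with 5% CO2 for 24 hours. Untreated cells were the negative control and cells without lytic reagent the positive control. Lytic reagents were then added and luminescence read on an EnVision™ Multilabel Reader.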

SMILES strings stand for the structures.

For `Cn1c(=O)n(C2CCC(=O)NC2=O)c2ccc(Cc3ccc(CC(=O)Nc4ccc5c(F)c(N6CC(=O)NS6(=O)=O)c(O)cc5c4)cc3)cc21` (stereo not drawn) [Degrader 136], the DC50 is below 50 nM at PTPN2 [1] and 50 to 150 nM on PTPN2 [2].
Taken in the same sequence, the figures for `Cn1c(=O)n(C2CCC(=O)NC2=O)c2ccc(-c3ccc([C@H](CO)C(=O)Nc4ccc5c(F)c(N6CC(=O)NS6(=O)=O)c(O)cc5c4)cc3)cc21` (stereo partly drawn) [Degrader 137] were 150 to 500 nM and below 50 nM.
Taken in the same sequence, the figures for `Cn1c(=O)n(C2CCC(=O)NC2=O)c2ccc(-c3ccc([C@@H](CO)C(=O)Nc4ccc5c(F)c(N6CC(=O)NS6(=O)=O)c(O)cc5c4)cc3)cc21` (stereo partly drawn) [Degrader 138] were below 50 nM and below 50 nM.
On the same counts, the results for `Cn1c(=O)n(C2CCC(=O)NC2=O)c2ccc(N3CCN(CC(=O)Nc4ccc5c(F)c(N6CC(=O)NS6(=O)=O)c(O)cc5c4)C(=O)C3)cc21` (stereo not drawn) [Degrader 139] are 150 to 500 nM and at least 500 nM.
As for `Cn1c(=O)n(C2CCC(=O)NC2=O)c2ccc(C3CN(CC(=O)Nc4ccc5c(F)c(N6CC(=O)NS6(=O)=O)c(O)cc5c4)CCC3F)cc21` (stereo not drawn) [Degrader 140], the results for the DC50 at PTPN2 [1] and at PTPN2 [2] were 50 to 150 nM and 150 to 500 nM, respectively.
Taken in the same sequence, the figures for `Cn1c(=O)n(C2CCC(=O)NC2=O)c2ccc([C@@H]3CN(CC(=O)Nc4ccc5c(F)c(N6CC(=O)NS6(=O)=O)c(O)cc5c4)CC[C@H]3F)cc21` (stereo partly drawn) [Degrader 141] were below 50 nM and 50 to 150 nM.
On the same counts, the results for `Cn1c(=O)n(C2CCC(=O)NC2=O)c2ccc([C@H]3CN(CC(=O)Nc4ccc5c(F)c(N6CC(=O)NS6(=O)=O)c(O)cc5c4)CC[C@@H]3F)cc21` (stereo partly drawn) [Degrader 142] are 150 to 500 nM and 150 to 500 nM.
For the molecule `O=C1CCC(N2C(=O)c3cccc4c(N5CCC(CC(=O)Nc6ccc7c(F)c(N8CC(=O)NS8(=O)=O)c(O)cc7c6)CC5)ccc2c34)C(=O)N1` (stereo not drawn) [Degrader 143], the DC50 at PTPN2 [1] is 50 to 150 nM; at PTPN2 [2], below 50 nM.
Taken in the same sequence, the figures for `Cn1c(=O)n(C2CCC(=O)NC2=O)c2ccc(N3CCC(CCNC(=O)Nc4ccc5c(F)c(N6CC(=O)NS6(=O)=O)c(O)cc5c4)CC3)c(F)c21` (stereo not drawn) [Degrader 144] were below 50 nM and 50 to 150 nM.
As to `Cn1c(=O)n(C2CCC(=O)NC2=O)c2ccc3c(c21)CCCN3CCCC(=O)Nc1ccc2c(F)c(N3CC(=O)NS3(=O)=O)c(O)cc2c1` (stereo not drawn) [Degrader 145], the DC50 on PTPN2 [1] and at PTPN2 [2] was at least 500 nM in each case.
Turning to `Cn1c(=O)n(C2CCC(=O)NC2=O)c2ccc3c(c21)CCCN3CCCCC(=O)Nc1ccc2c(F)c(N3CC(=O)NS3(=O)=O)c(O)cc2c1` (stereo not drawn) [Degrader 146], the figures for the DC50 on PTPN2 [1] and at PTPN2 [2] were below 50 nM and 50 to 150 nM, respectively.
For `Cn1c(=O)n(C2CCC(=O)NC2=O)c2ccc(N3CCC(CC(=O)Nc4ccc5c(F)c(N6CC(=O)NS6(=O)=O)c(O)cc5c4)CC3)cc21` (stereo not drawn) [Degrader 147], the DC50 on PTPN2 [1] and at PTPN2 [2] was 150 to 500 nM in each case.
For `C[C@@H]1CN(CC(=O)Nc2ccc3c(F)c(N4CC(=O)NS4(=O)=O)c(O)cc3c2)CCN1c1ccc2c(c1F)n(C)c(=O)n2C1CCC(=O)NC1=O` (stereo partly drawn) [Degrader 148], the DC50 at PTPN2 [1] lay within 50 to 150 nM; on PTPN2 [2] it was 150 to 500 nM.
On the same counts, the results for `Cn1c(=O)n(C2CCC(=O)NC2=O)c2ccc(-c3ccn(CC(=O)Nc4ccc5c(F)c(N6CC(=O)NS6(=O)=O)c(O)cc5c4)n3)cc21` (stereo not drawn) [Degrader 149] are 150 to 500 nM and 150 to 500 nM.
Taken in the same sequence, the figures for `C[C@@H]1CN(CC(=O)Nc2ccc3c(F)c(N4CC(=O)NS4(=O)=O)c(O)cc3c2)CCN1c1cc2c(cc1F)n(C1CCC(=O)NC1=O)c(=O)n2C` (stereo partly drawn) [Degrader 150] were 150 to 500 nM and 150 to 500 nM.
On the same counts, the results for `Cn1c(=O)n(C2CCC(=O)NC2=O)c2ccc([C@H]3CCCN(CC(=O)Nc4ccc5c(F)c(N6CC(=O)NS6(=O)=O)c(O)cc5c4)C3)cc21` (stereo partly drawn) [Degrader 151] are 150 to 500 nM and 150 to 500 nM.
For `Cn1c(=O)n(C2CCC(=O)NC2=O)c2ccc([C@@H]3CCCN(CC(=O)Nc4ccc5c(F)c(N6CC(=O)NS6(=O)=O)c(O)cc5c4)C3)cc21` (stereo partly drawn) [Degrader 152], the 50% degradation concentration (DC50) at PTPN2 [1] was in the range of 50 to 150 nM; at PTPN2 [2] it was 150 to 500 nM.
Taken in the same sequence, the figures for `Cn1c(=O)n(C2CCC(=O)NC2=O)c2ccc(-n3cc(CC(=O)Nc4ccc5c(F)c(N6CC(=O)NS6(=O)=O)c(O)cc5c4)cn3)cc21` (stereo not drawn) [Degrader 153] were 150 to 500 nM and 50 to 150 nM.
Taken in the same sequence, the figures for `O=C1CCC(N2CCc3cc(C4CCN(CC(=O)N5CCC(c6ccc7cc(O)c(N8CC(=O)NS8(=O)=O)c(F)c7c6)CC5)CC4)ccc32)C(=O)N1` (stereo not drawn) [Degrader 154] were 150 to 500 nM and 150 to 500 nM.
As for `O=C1CCC(N2C(=O)c3cccc4c(-c5ccc(CC(=O)Nc6ccc7c(F)c(N8CC(=O)NS8(=O)=O)c(O)cc7c6)cc5)ccc2c34)C(=O)N1` (stereo not drawn) [Degrader 155], the half-maximal degradation concentration (DC50) lay in the range of 150 to 500 nM on PTPN2 [1] and 50 to 150 nM on PTPN2 [2].
On the same counts, the results for `Cn1c(=O)n(C2CCC(=O)NC2=O)c2ccc(C3=CCC(CC(=O)Nc4ccc5c(F)c(N6CC(=O)NS6(=O)=O)c(O)cc5c4)CC3)cc21` (stereo not drawn) [Degrader 157] are 50 to 150 nM and 50 to 150 nM.

The record behind these values is patent US20240424111A1, “Degrader Compounds and Uses Thereof” (CALICO LIFE SCIENCES LLC, priority 2021, published 2024).
